Test results: patent publication US7557085B2, “Metabolic-based methods for modulating gene expression” (Wisconsin Alumni Research Foundation, priority 2005, dated 2009)

Assays:
CHRM4 = assay: ChIP in JTC-19 cells grown with 2-DG or glucose, CHRM4; assay type: cell-based, rat
Excerpt: To determine whether 2-DG mediated suppression of BDNF levels was associated with a decreased level of histone H3 Lysine^9 acetylation, hippocampii from 2-DG treated or control rats were crosslinked with 1% formaldehyde and subjected to chromatin immunoprecipitation assays (ChIPs), performed as in Roopra et al.(2004, Mol Cell 14: 727-38) with an antibody specific to acetylated H3-K9. The graphs shown in FIGS. 10A through 10C show the results of experiments in which the amount (in ng) of DNA associated with nucleosomes comprising modified or unmodified H3 histone proteins was detected for an endogenous, NRSE/NRSF-regulated gene (CHRM4) in JTC-19 cells grown in the presence of 2-DG or glucose. […] However, the amount of CtBP recruited to CHRM4, the NRSF target gene, increased 5-fold in the presence of 2-DG.

[1] = system: hippocampal gene expression; assay: microarray hybridization of rat hippocampus mRNA (Affymetrix Rat Array); assay type: in vivo; conditions: of 35,000 genes comprising the microarray
Experimental: In view of the results with BDNF and TrkB, hippocampal gene expression changes in rats treated with and without 2-DG were assessed by hybridization using microarrays (Affymetrix Rat Array (35,000 genes represented), Affymetrix, Santa Clara, Calif.). Hybridizations were performed according to the manufacturer's instructions using mRNA isolated from rat hippocampus from rats following dietary restriction or treatment with drug (2-DG). […] Genes of interest in disease states detected in these experiments include but are not limited to snail (NM_005985), MDR3/MRP3 (GenBank Accession No. M23234), MTA1 (NM_004689), DCC (NM_005215), Netrin (U75586), and β-catenin (X87838)(metastasis); BDNF (NM_170731) and TrkB (NM_006180) (neurological disorders) and atrial natriuretic peptide (ANP; NM_000907)(cardiac hypertrophy/myocardial infarction).

Structure (SMILES): O=CC[C@@H](O)[C@H](O)[C@H](O)CO [2-DG, 2-deoxy-D-glucose]
- H3-Lys9 acetylation levels at the CHRM4 promoter (CHRM4; in the presence of 2-DG): reduced
- amount of mono- and di-methyl K9 (CHRM4; in the presence of 2-DG): increased
- amount of unmodified (de-acetylated) H3K9 (CHRM4; in the presence of 2-DG): increased
- increase of amount of CtBP recruited to CHRM4 (CHRM4; in the presence of 2-DG): 5 fold
- amount of NRSF, G9a and SIN3 at NRSF target genes (CHRM4; presence or absence of 2-DG): does not change
- number of genes down-regulated by drug treatment [1]: 349
- number of genes transcriptionally upregulated by drug treatment [1]: 241
